Type in all cases: biochemical
One test deals with T1, Btk (Homo sapiens, UniProt Q06187).
T1 construct: purified from insect cells as a full-length construct containing a N-terminal 6X-His tag; His6 (N); made in house; host or cells: insect cells (Method C)
Description: Btk in vitro inhibitory activity (one of Method A TR-FRET, Method B electrophoretic mobility shift, Method C radiometric filter binding). In a few lines: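 Three alternative formats were used. A radiometric filter-binding read used 8 nM full-length His-BTK with 0.2 mg/mL poly(Glu-Tyr) 4:1 (C); microfluidic separation of 1 μM FAM-peptide by 1 nM BTK gave IC50 from 12-point curves (B); TR-FRET at Km ATP, 0.5 nM Btk, gave Ki(app)-derived IC50 (A).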

In the next test the target is T2, TEC (Homo sapiens, UniProt P42680).
T2 sequence (P42680 1-631): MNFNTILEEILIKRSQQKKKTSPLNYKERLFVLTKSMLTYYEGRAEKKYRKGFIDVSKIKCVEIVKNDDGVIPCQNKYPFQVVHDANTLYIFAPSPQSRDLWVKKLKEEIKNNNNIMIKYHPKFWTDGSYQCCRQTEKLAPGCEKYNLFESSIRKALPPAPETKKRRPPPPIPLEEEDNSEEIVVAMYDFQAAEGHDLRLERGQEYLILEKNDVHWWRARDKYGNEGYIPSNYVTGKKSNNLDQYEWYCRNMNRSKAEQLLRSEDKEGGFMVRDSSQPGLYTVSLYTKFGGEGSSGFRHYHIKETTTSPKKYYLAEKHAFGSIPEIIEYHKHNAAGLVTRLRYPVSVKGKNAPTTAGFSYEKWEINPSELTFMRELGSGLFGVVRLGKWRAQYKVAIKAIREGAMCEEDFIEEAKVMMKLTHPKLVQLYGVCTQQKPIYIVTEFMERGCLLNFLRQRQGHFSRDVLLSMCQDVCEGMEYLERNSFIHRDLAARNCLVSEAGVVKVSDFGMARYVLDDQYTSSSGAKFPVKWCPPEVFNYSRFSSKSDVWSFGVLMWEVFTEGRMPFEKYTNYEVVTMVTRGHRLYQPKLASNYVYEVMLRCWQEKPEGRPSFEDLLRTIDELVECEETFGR
Description: Inhibition of a panel of kinases (in vitro HotSpot kinase assay, 33P-ATP, 1 μM ATP). The note with it: for IC50: HotSpot kinase assay, 1 μM ATP; for TEC/Btk: ratio of TEC IC50 to Btk IC50 (selectivity). The procedure, abridged: (§1)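 At 1 μM ATP spiked with 33P-ATP, substrate phosphorylation by the purified enzymes gives the extent of inhibition.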

The target of the next test is T3, panel of kinases (Homo sapiens, UniProt P51813).
T3 sequence (P51813 1-675): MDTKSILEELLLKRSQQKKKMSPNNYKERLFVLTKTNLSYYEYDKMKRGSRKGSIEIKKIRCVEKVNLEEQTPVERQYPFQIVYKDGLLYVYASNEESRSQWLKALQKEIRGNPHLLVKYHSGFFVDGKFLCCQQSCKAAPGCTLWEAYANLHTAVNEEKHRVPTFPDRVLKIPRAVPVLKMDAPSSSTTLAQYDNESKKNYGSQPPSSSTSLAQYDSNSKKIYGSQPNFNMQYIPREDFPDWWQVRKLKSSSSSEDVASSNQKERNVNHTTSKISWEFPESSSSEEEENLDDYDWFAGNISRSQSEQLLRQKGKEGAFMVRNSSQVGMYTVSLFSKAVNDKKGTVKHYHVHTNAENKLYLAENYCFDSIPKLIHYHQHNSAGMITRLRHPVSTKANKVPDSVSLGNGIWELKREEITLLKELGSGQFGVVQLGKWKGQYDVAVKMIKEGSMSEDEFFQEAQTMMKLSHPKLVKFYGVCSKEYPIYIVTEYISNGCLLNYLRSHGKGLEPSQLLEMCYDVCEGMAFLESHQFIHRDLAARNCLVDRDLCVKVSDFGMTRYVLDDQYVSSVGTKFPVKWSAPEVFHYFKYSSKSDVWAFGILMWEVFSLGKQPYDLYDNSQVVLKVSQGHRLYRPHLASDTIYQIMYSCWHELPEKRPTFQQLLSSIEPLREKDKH
Description: Inhibition of a panel of kinases (in vitro HotSpot kinase assay, 33P-ATP, 1 μM ATP), other kinases. The note with it: BMX wild-type, read-out: BMX-WT IC50. The procedure, abridged:
as §1

[1] abbreviates: method is one of A, B or C, not stated which, read-out: IC50 values against Btk.
[2] abbreviates: wild-type Btk, read-out: Btk-WT IC50.

Like-named read-outs stand apart in the source and are kept apart here. Some results are limits rather than exact numbers.

T1 sequence (Q06187 whole entry): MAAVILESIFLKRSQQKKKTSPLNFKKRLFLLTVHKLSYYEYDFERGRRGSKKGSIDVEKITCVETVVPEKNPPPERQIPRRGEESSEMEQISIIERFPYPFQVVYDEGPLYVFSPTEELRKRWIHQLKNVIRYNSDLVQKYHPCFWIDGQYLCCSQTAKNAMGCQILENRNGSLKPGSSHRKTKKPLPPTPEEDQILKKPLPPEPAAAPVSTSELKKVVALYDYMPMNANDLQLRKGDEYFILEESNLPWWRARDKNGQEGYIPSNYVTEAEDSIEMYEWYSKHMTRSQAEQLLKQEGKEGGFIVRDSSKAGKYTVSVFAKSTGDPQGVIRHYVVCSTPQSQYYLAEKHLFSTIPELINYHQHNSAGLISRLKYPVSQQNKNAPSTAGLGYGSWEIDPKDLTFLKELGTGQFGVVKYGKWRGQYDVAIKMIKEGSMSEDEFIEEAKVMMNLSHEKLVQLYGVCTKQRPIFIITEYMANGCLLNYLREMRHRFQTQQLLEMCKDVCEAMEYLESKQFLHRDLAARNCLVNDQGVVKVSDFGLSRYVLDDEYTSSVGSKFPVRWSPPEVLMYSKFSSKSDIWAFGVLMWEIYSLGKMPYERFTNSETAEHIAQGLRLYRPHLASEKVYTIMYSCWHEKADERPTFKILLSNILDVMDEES

In the case of `C=CC(=O)N1C[C@H](Nc2n[nH]c3nccc(-c4ccc(CNC(=O)c5nc(C(C)(C)C)no5)c(F)c4)c23)CC[C@@H]1C` [Example 148, 3-tert-butyl-N-{[2-fluoro-4-(3-{[(3R,6S)-6-methyl-1-(prop-2-enoyl)piperidin-3-yl]amino}-1H-pyrazolo[3,4-b]pyridin-4-yl)phenyl]methyl}-1,2,4-oxadiazole-5-carboxamide], the concentration for half-maximal inhibition (IC50) is less than 10 nM at Btk (setting [1]), 0.0924 nM on Btk (setting [2]), 28 nM on TEC and 12 nM at panel of kinases. Also, the TEC/Btk on TEC turned out to be 305.

As to `CC1(C)Cc2cc(C(=O)NCc3ccc(-c4ccnc5[nH]nc(N[C@@H]6CCNC6)c45)cc3F)[nH]c2C1` [Example 149, N-{[2-fluoro-4-(3-{[(3R)-pyrrolidin-3-yl]amino}-1H-pyrazolo[3,4-b]pyridin-4-yl)phenyl]methyl}-5,5-dimethyl-1H,4H,5H,6H-cyclopenta[b]pyrrole-2-carboxamide], the IC50 at Btk (setting [2]) was 739 nM; on TEC, more than 10000 nM; at panel of kinases, more than 10000 nM. The TEC/Btk at TEC is more than 100.

`CC(C)(C)c1ccc(C(=O)Nc2cccc(-c3ccnc4[nH]nc(N[C@@H]5CCNC5)c34)c2CO)cc1` [Example 150, 4-tert-butyl-N-[2-(hydroxymethyl)-3-(3-{[(3R)-pyrrolidin-3-yl]amino}-1H-pyrazolo[3,4-b]pyridin-4-yl)phenyl]benzamide]: the IC50 was 35.3 nM at Btk (setting [2]), more than 10000 nM against TEC and more than 10000 nM on panel of kinases. Further, the TEC/Btk at TEC is reported as more than 100.

On to `CC(C)(C)c1nc(C(=O)NCc2ccc(-c3ccnc4[nH]nc(N[C@H]5CC[C@H](N)CC5)c34)cc2F)no1` [Example 151, 5-tert-butyl-N-{[2-fluoro-4-(3-{[(1r,4r)-4-aminocyclohexyl]amino}-1H-pyrazolo[3,4-b]pyridin-4-yl)phenyl]methyl}-1,2,4-oxadiazole-3-carboxamide], for which the figures for the IC50 on Btk (setting [2]), against TEC and at panel of kinases were 21.7 nM, 8270 nM and 8120 nM, respectively.

As for `C=CC(=O)N[C@H]1CC[C@H](Nc2n[nH]c3nccc(-c4ccc(CNC(=O)c5noc(C(C)(C)C)n5)c(F)c4)c23)CC1` [Example 152, 5-tert-butyl-N-{[2-fluoro-4-(3-{[(1r,4r)-4-(prop-2-enamido)cyclohexyl]amino}-1H-pyrazolo[3,4-b]pyridin-4-yl)phenyl]methyl}-1,2,4-oxadiazole-3-carboxamide], the IC50 on Btk (setting [1]) is less than 10 nM; at Btk (setting [2]) it was 3.41 nM; at TEC it was 2680 nM; at panel of kinases, 496 nM.

As for `CC(C)(C)c1nc(C(=O)NCc2ccc(-c3ccnc4[nH]nc(N[C@H]5CC[C@@H](N)CC5)c34)cc2F)no1` [Example 153, 5-tert-butyl-N-{[2-fluoro-4-(3-{[(1s,4s)-4-aminocyclohexyl]amino}-1H-pyrazolo[3,4-b]pyridin-4-yl)phenyl]methyl}-1,2,4-oxadiazole-3-carboxamide], the IC50 at Btk (setting [2]) came to 18.9 nM; at TEC, 3200 nM; at panel of kinases, 2000 nM. Also, the TEC/Btk at TEC is listed as 169.

`C=CC(=O)N[C@H]1CC[C@@H](Nc2n[nH]c3nccc(-c4ccc(CNC(=O)c5noc(C(C)(C)C)n5)c(F)c4)c23)CC1` [Example 154, 5-tert-butyl-N-{[2-fluoro-4-(3-{[(1s,4s)-4-(prop-2-enamido)cyclohexyl]amino}-1H-pyrazolo[3,4-b]pyridin-4-yl)phenyl]methyl}-1,2,4-oxadiazole-3-carboxamide]: the IC50 on Btk (setting [1]) was less than 10 nM; at Btk (setting [2]) it was 0.237 nM; against TEC it was 409 nM; on panel of kinases, 229 nM. On TEC, the TEC/Btk is 1726.

For `CC(C)(C)c1nc(NC(=O)Nc2ccc(-c3ccnc4[nH]nc(N[C@@H]5CCNC5)c34)cc2F)no1` [Example 155, 3-(5-tert-butyl-1,2,4-oxadiazol-3-yl)-1-[2-fluoro-4-(3-{[(3R)-pyrrolidin-3-yl]amino}-1H-pyrazolo[3,4-b]pyridin-4-yl)phenyl]urea], the IC50 at Btk (setting [2]), at TEC and at panel of kinases was more than 10000 nM each time.

Turning to `C=CC(=O)N1CC[C@@H](Nc2n[nH]c3nccc(-c4ccc(NC(=O)Nc5noc(C(C)(C)C)n5)c(F)c4)c23)C1` [Example 156, 3-(5-tert-butyl-1,2,4-oxadiazol-3-yl)-1-[2-fluoro-4-(3-{[(3R)-1-(prop-2-enoyl)pyrrolidin-3-yl]amino}-1H-pyrazolo[3,4-b]pyridin-4-yl)phenyl]urea], the concentration for half-maximal inhibition (IC50) at Btk (setting [2]) turned out to be 639 nM; at TEC, 407 nM; at panel of kinases, 111 nM. In addition, the TEC/Btk on TEC amounted to 1.

Consider `Cn1c(C(=O)NCc2ccc(-c3ccnc4[nH]nc(N[C@@H]5CCNC5)c34)cc2F)cc2c1CC(C)(C)C2` [Example 157, N-{[2-fluoro-4-(3-{[(3R)-pyrrolidin-3-yl]amino}-1H-pyrazolo[3,4-b]pyridin-4-yl)phenyl]methyl}-1,5,5-trimethyl-1H,4H,5H,6H-cyclopenta[b]pyrrole-2-carboxamide], for which the half-maximal inhibitory concentration (IC50) on Btk (setting [2]), on TEC and on panel of kinases was more than 10000 nM each time.

`C=CC(=O)N1CC[C@@H](Nc2n[nH]c3nccc(-c4ccc(CNC(=O)c5cc6c(n5C)CC(C)(C)C6)c(F)c4)c23)C1` [Example 158, N-{[2-fluoro-4-(3-{[(3R)-1-(prop-2-enoyl)pyrrolidin-3-yl]amino}-1H-pyrazolo[3,4-b]pyridin-4-yl)phenyl]methyl}-1,5,5-trimethyl-1H,4H,5H,6H-cyclopenta[b]pyrrole-2-carboxamide]: the IC50 at Btk (setting [1]) was less than 10 nM; on Btk (setting [2]), 7.71 nM; on TEC, 394 nM; on panel of kinases it was 170 nM. Also, the TEC/Btk on TEC worked out at 51.

As to `CC(C)(C)c1noc(C(=O)NCc2ccc(-c3ccnc4[nH]nc(N5CC[C@H](N)C5)c34)cc2F)n1` [Example 159, N-[(4-{3-[(3S)-3-aminopyrrolidin-1-yl]-1H-pyrazolo[3,4-b]pyridin-4-yl}-2-fluorophenyl)methyl]-3-tert-butyl-1,2,4-oxadiazole-5-carboxamide], the IC50 is less than 10 nM at Btk (setting [1]), 1.45 nM on Btk (setting [2]), 591 nM at TEC and 1820 nM on panel of kinases. Further, on TEC, the TEC/Btk turned out to be 408.

On to `C=CC(=O)N1CC[C@@H](Nc2n[nH]c3nccc(-c4cccc(NC(=O)c5noc(C(C)(C)C)n5)c4CO)c23)C1` [Example 160, 5-tert-butyl-N-[2-(hydroxymethyl)-3-(3-{[(3R)-1-(prop-2-enoyl)pyrrolidin-3-yl]amino}-1H-pyrazolo[3,4-b]pyridin-4-yl)phenyl]-1,2,4-oxadiazole-3-carboxamide], for which the half-maximal inhibitory concentration (IC50) turned out to be 37.3 nM at Btk (setting [2]), 922 nM at TEC and 444 nM on panel of kinases. Moreover, the TEC/Btk at TEC turned out to be 25.

Regarding `C=CC(=O)N1CC[C@@H](Nc2n[nH]c3nccc(-c4cccc(NC(=O)c5ccc(C(C)(C)C)cc5)c4CO)c23)C1` [Example 161, 4-tert-butyl-N-[2-(hydroxymethyl)-3-(3-{[(3R)-1-(prop-2-enoyl)pyrrolidin-3-yl]amino}-1H-pyrazolo[3,4-b]pyridin-4-yl)phenyl]benzamide], the IC50 was less than 10 nM at Btk (setting [1]), 0.57 nM at Btk (setting [2]), 318 nM on TEC and 275 nM on panel of kinases. The TEC/Btk on TEC is recorded as 558.

For the origin of these results see patent publication US20180194762A1 (Pharmacyclics LLC, priority 2017, published 2018).
